Measured values published in patent publication US7786141B2 (Vertex Pharmaceuticals Incorporated, priority 2004, dated 2010).
Read-outs that look alike come from different tables or passages of the source.

How the values were obtained:
M1 muscarinic receptor = target: T1, M1 muscarinic receptor (Homo sapiens, UniProt P11229); test: Functional mobilization of intracellular calcium (FLIPR) in M1-CHO cells; type: cell-based
T1 construct: expressed in transfected cells; host or cells: CHO (M1-CHO)
T1 sequence (P11229 1-460): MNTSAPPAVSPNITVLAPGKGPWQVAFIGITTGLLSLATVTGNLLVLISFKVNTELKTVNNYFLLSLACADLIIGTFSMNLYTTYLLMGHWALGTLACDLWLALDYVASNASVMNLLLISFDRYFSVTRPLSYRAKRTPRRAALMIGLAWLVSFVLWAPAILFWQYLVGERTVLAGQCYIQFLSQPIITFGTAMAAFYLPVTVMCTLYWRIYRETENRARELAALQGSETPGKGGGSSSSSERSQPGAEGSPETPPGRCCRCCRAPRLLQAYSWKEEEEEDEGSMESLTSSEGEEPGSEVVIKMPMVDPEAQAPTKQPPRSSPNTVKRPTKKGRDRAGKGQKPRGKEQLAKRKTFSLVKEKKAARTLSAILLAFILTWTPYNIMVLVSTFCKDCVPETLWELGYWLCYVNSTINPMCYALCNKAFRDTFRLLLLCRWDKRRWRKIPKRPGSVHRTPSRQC
Procedure, shortened: (§1)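 Intracellular calcium rise is measured by FLIPR fluorescence over 60 sec in CHO cells carrying human M1 or M4 receptors. Compounds are tested alone as agonists, or pre-incubated 15 min (or co-applied) ahead of carbachol at its EC80 to detect inhibition.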

M4 muscarinic receptor = target: T2, M4 muscarinic receptor (Homo sapiens, UniProt P08173); test: Functional mobilization of intracellular calcium (FLIPR) in M4-CHO cells; type: cell-based
T2 construct: expressed in transfected cells; host or cells: CHO (M4-CHO)
T2 sequence (P08173 1-479): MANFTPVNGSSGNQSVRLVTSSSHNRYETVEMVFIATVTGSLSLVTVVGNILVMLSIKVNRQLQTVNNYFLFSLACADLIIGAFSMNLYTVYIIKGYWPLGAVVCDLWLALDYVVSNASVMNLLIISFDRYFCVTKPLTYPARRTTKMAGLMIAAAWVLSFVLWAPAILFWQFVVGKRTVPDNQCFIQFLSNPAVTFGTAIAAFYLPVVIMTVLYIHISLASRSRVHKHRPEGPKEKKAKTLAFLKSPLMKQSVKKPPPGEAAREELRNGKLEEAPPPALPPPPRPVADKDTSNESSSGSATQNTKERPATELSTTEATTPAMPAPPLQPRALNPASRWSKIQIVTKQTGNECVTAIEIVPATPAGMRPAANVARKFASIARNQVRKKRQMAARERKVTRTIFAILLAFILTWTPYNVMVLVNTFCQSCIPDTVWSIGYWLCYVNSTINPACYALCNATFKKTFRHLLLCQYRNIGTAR
Procedure, shortened: as §1

[1] = M1 receptor, calcium mobilization
[2] = M1 receptor, calcium mobilization, read-out: M1 Efficacy
[3] = M4 receptor, calcium mobilization
[4] = M4 receptor, calcium mobilization, read-out: M4 Efficacy
[5] = Table 4, 100% efficacy is the maximum response obtained with the Carbachol control
[6] = Table 4, M1 receptor, calcium mobilization (FLIPR)
[7] = Table 4, M4 receptor, calcium mobilization (FLIPR)
[8] = Table 4, modulating M1 receptor
[9] = Table 4, modulating M4 receptor

| Compound | M1 Activity (M1 muscarinic receptor; [1]) | Emax (M1 muscarinic receptor; [2]) [%] | M4 Activity (M4 muscarinic receptor; [3]) | Emax (M4 muscarinic receptor; [4]) [%] | Emax (M1 muscarinic receptor; [5]) [%] | M1 Activity (M1 muscarinic receptor; [6]) | Emax (M4 muscarinic receptor; [5]) [%] | M4 Activity (M4 muscarinic receptor; [7]) | M1 Activity (M1 muscarinic receptor; [8]) | M4 Activity (M4 muscarinic receptor; [9]) |
| --- | --- | --- | --- | --- | --- | --- | --- | --- | --- | --- |
| CCOC(=O)N1CCC(CN2CCC3(CC2)CC(=O)Nc2ccccc23)CC1 [compound 34] | xxx (activity was measured to be less than 0.1 μM) | 65 to 85 | xx (activity was measured to be between 0.1 μM and 1.0 μM) | > 85 | – | – | – | – | – | – |
| CC(=O)N1CC2(CCN(CC3CCCC3)CC2)c2cc(F)ccc21 [compound 187] | xx (activity was measured to be between 0.1 μM and 1.0 μM) | 65 to 85 | x (activity was measured to be greater than 1.0 μM) | 65 to 85 | – | – | – | – | – | – |
| CCC(C)C(=O)N1CCC(N2CCC3(CC2)CN(C(C)=O)c2ccccc23)CC1 (centres unmarked) [compound 1000] | – | – | – | – | 25 to 100 | x (activity was measured to be greater than 5.0 μM) | 25 to 100 | x (activity was measured to be greater than 5.0 μM) | – | – |
| CCOC(=O)N1CCC(N2CCC3(CC2)CN(C(C)=O)c2c(Br)cccc23)CC1 [compound 995] | – | – | – | – | 25 to 100 | x (activity was measured to be greater than 5.0 μM) | 25 to 100 | xx (activity was measured to be between 2.0 μM and 5.0 μM) | – | – |
| CCCC1CCC(N2CCC3(CC2)CNc2ccccc23)CC1 (centres unmarked) [compound 334] | x (activity was measured to be greater than 1.0 μM) | < 65 | x (activity was measured to be greater than 1.0 μM) | < 65 | – | – | – | – | – | – |
| COC(=O)N1CCC(N2CCC3(CC2)CN(C(=O)N(C)C)c2ccc(F)cc23)CC1 [compound 154] | xxx (activity was measured to be less than 0.1 μM) | 65 to 85 | xxx (activity was measured to be less than 0.1 μM) | > 85 | – | – | – | – | – | – |
| O=C(O[C@@H]1CCOC1)N1CC2(CCN(C3CC4CCC(C3)N4C(=O)O[C@H]3CCOC3)CC2)c2cc(F)ccc21 (some centres unmarked) [compound 198] | xx (activity was measured to be between 0.1 μM and 1.0 μM) | 65 to 85 | x (activity was measured to be greater than 1.0 μM) | < 65 | – | – | – | – | – | – |
| CCOC(=O)N1C2CCC1CC(N1CCC3(CC1)CN(C(=O)c1cc(C)nn1C(C)(C)C)c1ccc(F)cc13)C2 (centres unmarked) [compound 189] | xxx (activity was measured to be less than 0.1 μM) | 65 to 85 | x (activity was measured to be greater than 1.0 μM) | 65 to 85 | – | – | – | – | – | – |
| CCC#CCOC(=O)N1CCC(N2CCC3(CC2)CN(C(C)=O)c2ccccc23)CC1 [compound 656] | – | – | – | – | 25 to 100 | – | 25 to 100 | – | xxx (activity was measured to be less than 2.0 μM) | xxx (activity was measured to be less than 2.0 μM) |
| CC(=O)N1CC2(CCN(C3CC4CCC(C4)C3)CC2)c2cc(F)ccc21 (centres unmarked) [compound 35] | xxx (activity was measured to be less than 0.1 μM) | > 85 | xx (activity was measured to be between 0.1 μM and 1.0 μM) | > 85 | – | – | – | – | – | – |
| COC(=O)N1CCC(N2CCC3(CC2)CN(C(C)=O)c2ccc(F)cc23)CC1 [compound 374] | xx (activity was measured to be between 0.1 μM and 1.0 μM) | 65 to 85 | x (activity was measured to be greater than 1.0 μM) | 65 to 85 | – | – | – | – | – | – |
| COc1cccc(-c2cncc(N3CCC(N4CCC5(CC4)CN(C(C)=O)c4ccccc45)CC3)n2)c1 [compound 837] | – | – | – | – | < 25 | x (activity was measured to be greater than 5.0 μM) | < 25 | x (activity was measured to be greater than 5.0 μM) | – | – |
| O=C1CCCN1[C@H]1CCC2(CCN(CC3CCCCC3)CC2)c2ccccc21 [compound 647] | – | – | – | – | 25 to 100 | – | 25 to 100 | – | xxx (activity was measured to be less than 2.0 μM) | xxx (activity was measured to be less than 2.0 μM) |
| CCNC(=O)N1CC2(CCN(C3CCN(C(=O)OCC)CC3)CC2)c2ccccc21 [compound 944] | – | – | – | – | 25 to 100 | xxx (activity was measured to be less than 2.0 μM) | 25 to 100 | xxx (activity was measured to be less than 2.0 μM) | – | – |
| O=C(O[C@H]1CCOC1)N1C2CCC1CC(N1CCC3(CCc4ccccc43)CC1)C2 (some centres unmarked) [compound 355] | xx (activity was measured to be between 0.1 μM and 1.0 μM) | 65 to 85 | xx (activity was measured to be between 0.1 μM and 1.0 μM) | 65 to 85 | – | – | – | – | – | – |
| CCOC(=O)N1CCC(N2CCC3(CC2)CN(CC(=O)CC)c2ccc(F)cc23)CC1 [compound 303] | xx (activity was measured to be between 0.1 μM and 1.0 μM) | > 85 | x (activity was measured to be greater than 1.0 μM) | < 65 | – | – | – | – | – | – |
| CC(C)OC(=O)N1C2CCC1CC(N1CCC3(CC1)CN(C(=O)C1CC1)c1ccc(F)cc13)C2 (centres unmarked) [compound 345] | xxx (activity was measured to be less than 0.1 μM) | < 65 | xx (activity was measured to be between 0.1 μM and 1.0 μM) | < 65 | – | – | – | – | – | – |
| CN(C)C(=O)N1CC2(CCN(C3CCN(C(=O)c4cnccn4)CC3)CC2)c2cc(F)ccc21 [compound 531] | – | – | – | – | < 25 | – | < 25 | – | x (activity was measured to be greater than 5.0 μM) | x (activity was measured to be greater than 5.0 μM) |
| CCOC(=O)N1CCC(N2CCC3(CC2)CN(c2ccsc2)c2ccc(F)cc23)CC1 [compound 891] | – | – | – | – | 25 to 100 | xxx (activity was measured to be less than 2.0 μM) | 25 to 100 | xxx (activity was measured to be less than 2.0 μM) | – | – |
| CC(=O)N1CC2(CCN(C3CC4CCC3C4)CC2)c2cc(C)ccc21 (centres unmarked) [compound 138] | xxx (activity was measured to be less than 0.1 μM) | 65 to 85 | x (activity was measured to be greater than 1.0 μM) | 65 to 85 | – | – | – | – | – | – |
| CN(C)C(=O)N1CC2(CCN(C3CCN(C(=O)CCC#N)CC3)CC2)c2cc(F)ccc21 [compound 492] | – | – | – | – | 25 to 100 | – | < 25 | – | x (activity was measured to be greater than 5.0 μM) | x (activity was measured to be greater than 5.0 μM) |
| CCOC(=O)N1CCC(N2CCC3(CC2)CN(C(C)=O)c2ccc(-c4cccc(C#N)c4)cc23)CC1 [compound 373] | xxx (activity was measured to be less than 0.1 μM) | 65 to 85 | xx (activity was measured to be between 0.1 μM and 1.0 μM) | > 85 | – | – | – | – | – | – |
| CC(F)CC(=O)N1CCC(N2CCC3(CC2)CN(C(=O)N(C)C)c2ccc(F)cc23)CC1 (centres unmarked) [compound 921] | – | – | – | – | 25 to 100 | x (activity was measured to be greater than 5.0 μM) | < 25 | x (activity was measured to be greater than 5.0 μM) | – | – |
